According to patent US10189839B2, “Tricyclic imidazole compounds as inhibitors of tryptophan hydroxylase” (ACTELION PHARMACEUTICALS LTD, priority 2013, dated 2019):

Biological target: T1, full length human TPH1 (Homo sapiens, UniProt P17752)
T1 construct: To generate the enzyme, full length human TPH1 is cloned into the plasmid pET20b(+); made in house; host or cells: E. coli
T1 sequence (P17752 1-444): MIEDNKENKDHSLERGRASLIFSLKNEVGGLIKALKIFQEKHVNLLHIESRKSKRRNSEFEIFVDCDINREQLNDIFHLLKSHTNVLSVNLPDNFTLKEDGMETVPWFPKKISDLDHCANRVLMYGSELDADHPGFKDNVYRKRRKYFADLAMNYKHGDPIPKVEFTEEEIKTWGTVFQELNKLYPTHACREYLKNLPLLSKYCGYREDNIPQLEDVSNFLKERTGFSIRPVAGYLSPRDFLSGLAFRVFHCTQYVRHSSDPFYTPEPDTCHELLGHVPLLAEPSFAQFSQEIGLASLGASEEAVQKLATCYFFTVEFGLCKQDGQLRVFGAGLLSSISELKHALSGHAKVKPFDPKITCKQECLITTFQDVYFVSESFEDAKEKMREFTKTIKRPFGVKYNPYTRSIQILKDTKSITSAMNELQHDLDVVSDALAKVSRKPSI
Assay: Biochemical in vitro assay using fluorescence readout (TPH1 enzyme activity)
Details: Table 1, mean where determined several times
Excerpt: Inhibitory activities on tryptophan hydroxylase 1 have been measured for each example compound using the following procedure:
Biochemical In Vitro Assay Using Fluorescence Readout
To generate the enzyme, full length human TPH1 is cloned into the plasmid pET20b(+) (Novagen) and expressed in E. coli. The bacterial cells are ruptured by sonication on ice and the lysate is cleared by centrifugation. The resulting protein in the pellet is re-extracted and TPH1 is purified from the obtained lysate by affinity chromatography using a pterin cosubstrate analog immobilized to the resin of the column. The protein is further purified by size exclusion chromatography to remove protein aggregates. The activity of TPH1 is determined by using a fluorescence assay. The enzyme activity assay is carried out at 15° C. with atmosphere oxygen for the duration of 60 minutes in a volume of 64 μl. The reaction is carried out in a 0.1M Tris-HCl buffer, adjusted to pH 7.6, containing 1 mM DTT, 0.2 mg/ml catalase, 100 μM (±)-6-methyl-5,6,7,8-tetrahydropterine dihydrochloride, 40 μM L-tryptophan, and 40-80 nM of TPH1. The reaction is started by bringing together L-tryptophan with all the other reaction substituents and stopped by quenching with perchloric acid (HClO4). The amount of 5-hydroxy-L-tryptophan produced during the enzymatic reaction is determined by fluorescence readout. Fluorescence, as determined at 540 nm when excited at 300 nm wavelength, increases proportionally to the 5-hydroxy-L-tryptophan formed. Compounds are prepared as 10 mM stock solution in DMSO, then diluted in 384-well plates using DMSO followed by a transfer of the dilutions into the assay plate. Fluorescence is measured for each well and the fluorescence at 540 nm wavelength is compared to the fluorescence of the vehicle in place of compound. Inhibitory activities of example compounds with respect to the TPH1 protein are determined by calculating the IC50 value (the concentration of compound needed to inhibit 50% of the enzyme activity). The calculated IC50 values may fluctuate depending on the daily biochemical assay performance. Fluctuations of this kind are known to those skilled in the art. In the case where IC50 values have been determined several times for the same compound, the mean is given.

| Structure (SMILES) | IC50 [nM] |
| --- | --- |
| CCc1nc(NS(C)(=O)=O)ccc1OCC(=O)N1CCc2nc3n(c2C1c1cnc(-c2ccccc2)s1)CCCC3 (stereo not drawn) [Example 1.16.1, N-(6-ethyl-5-(2-oxo-2-(1-(2-phenylthiazol-5-yl)-3,4,6,7,8,9-hexahydroimidazo[1,2-a:5,4-c′]dipyridin-2(1H)-yl)ethoxy)pyridin-2-yl)methanesulfonamide] | 225 |
| CCc1nc(NS(C)(=O)=O)ccc1OCC(=O)N1CCc2nc3n(c2C1c1cnc(C)s1)CCCC3 (stereo not drawn) [Example 1.15.1, N-(6-ethyl-5-(2-(1-(2-methylthiazol-5-yl)-3,4,6,7,8,9-hexahydroimidazo[1,2-a:5,4-c′]dipyridin-2(1H)-yl)-2-oxoethoxy)pyridin-2-yl)methanesulfonamide] | 36 |
| COC(C)(C)c1ccc(C2c3c(nc4n3CCCC4)CCN2C(=O)COc2ccc(C(=O)NC3CC3)nc2Cl)c(F)c1 (stereo not drawn) [Example 1.25.1, 6-chloro-N-cyclopropyl-5-(2-(1-(2-fluoro-4-(2-methoxypropan-2-yl)phenyl)-3,4,6,7,8,9-hexahydroimidazo[1,2-a:5,4-c′]dipyridin-2(1H)-yl)-2-oxoethoxy)picolinamide] | 68 |
| CCc1nc(NS(C)(=O)=O)ccc1OCC(=O)N1CCc2nc3n(c2C1c1ccc(C)c(F)c1F)CCCC3 (stereo not drawn) [Example 1.9.7, N-(5-(2-(1-(2,3-difluoro-4-methylphenyl)-3,4,6,7,8,9-hexahydroimidazo[1,2-a:5,4-c′]dipyridin-2(1H)-yl)-2-oxoethoxy)-6-ethylpyridin-2-yl)methanesulfonamide] | 8 |
| COCCOc1ccc(C2c3c(nc4n3CCCC4)CCN2C(=O)COc2ccc(C(=O)NC3CC3)nc2Cl)c(F)c1 (stereo not drawn) [Example 1.27.1, 6-chloro-N-cyclopropyl-5-(2-(1-(2-fluoro-4-(2-methoxyethoxy)phenyl)-3,4,6,7,8,9-hexahydroimidazo[1,2-a:5,4-c′]dipyridin-2(1H)-yl)-2-oxoethoxy)picolinamide] | 60 |
| CC(=O)N1CCn2c(nc3c2C(c2ncc(Cl)cc2F)N(C(=O)COc2ccc(N4CCOCC4)nc2Cl)CC3)C1 (stereo not drawn) [Example 5.9.1, 1-(7-acetyl-1-(5-chloro-3-fluoropyridin-2-yl)-3,4,6,7,8,9-hexahydropyrido[4′,3′:4,5]imidazo[1,2-a]pyrazin-2(1H)-yl)-2-((2-chloro-6-morpholinopyridin-3-yl)oxy)ethanone] | 8 |
| CS(=O)(=O)Nc1ccc(OCC(=O)N2CCc3nc4n(c3C2c2ccc(OCCO)cc2F)CCCC4)c(Cl)n1 (stereo not drawn) [Example 1.28.2, N-(6-chloro-5-(2-(1-(2-fluoro-4-(2-hydroxyethoxy)phenyl)-3,4,6,7,8,9-hexahydroimidazo[1,2-a:5,4-c′]dipyridin-2(1H)-yl)-2-oxoethoxy)pyridin-2-yl)methanesulfonamide] | 21 |
| CCc1nc(NS(C)(=O)=O)ccc1OCC(=O)N1CCc2nc3n(c2C1c1ccc(C)c(F)c1F)CCC3 (stereo not drawn) [Example 2.3.1, N-(5-(2-(1-(2,3-difluoro-4-methylphenyl)-3,4,7,8-tetrahydro-1H-pyrrolo[2′,1′:2,3]imidazo[4,5-c]pyridin-2(6H)-yl)-2-oxoethoxy)-6-ethylpyridin-2-yl)methanesulfonamide] | 8 |
| Cc1nc(C)c(C2c3c(nc4n3CCCC4)CCN2C(=O)COc2ccc(C(=O)N(C)C)nc2Cl)s1 (stereo not drawn) [Example 1.10.5, 6-chloro-5-(2-(1-(2,4-dimethylthiazol-5-yl)-3,4,6,7,8,9-hexahydroimidazo[1,2-a:5,4-c′]dipyridin-2(1H)-yl)-2-oxoethoxy)-N,N-dimethylpicolinamide] | 85 |
| Cc1nc(C)c(C2c3c(nc4n3CCCC4)CCN2C(=O)COc2ccc(C(=O)N(C)C3CC3)nc2Cl)s1 (stereo not drawn) [Example 1.10.2, 6-chloro-N-cyclopropyl-5-(2-(1-(2,4-dimethylthiazol-5-yl)-3,4,6,7,8,9-hexahydroimidazo[1,2-a:5,4-c′]dipyridin-2(1H)-yl)-2-oxoethoxy)-N-methylpicolinamide] | 82 |
| CN(C)C(=O)c1ccc(OCC(=O)N2CCc3nc4n(c3C2c2ncc(Cl)cc2F)CCOC4)c(Cl)n1 (stereo not drawn) [Example 6.4.2, 6-chloro-5-(2-(6-(5-chloro-3-fluoropyridin-2-yl)-3,4,8,9-tetrahydro-1H-pyrido[4′,3′:4,5]imidazo[2,1-c][1,4]oxazin-7(6H)-yl)-2-oxoethoxy)-N,N-dimethylpicolinamide] | 76 |
| Cc1ccc(C2c3c(nc4n3CCCC4)CCN2C(=O)COc2ccc(C(=O)N(C)C3CC3)nc2Cl)c(F)c1 (stereo not drawn) [Example 1.2.3, 6-chloro-N-cyclopropyl-5-(2-(1-(2-fluoro-4-methyl-phenyl)-3,4,6,7,8,9-hexahydroimidazo[1,2-a:5,4-c′]dipyridin-2(1H)-yl)-2-oxoethoxy)-N-methylpicolinamide] | 22 |

The next lines start with the values.

| IC50 [nM] | Structure (SMILES) |
| --- | --- |
| 21 | Cc1ccc(C2c3c(nc4n3CCCCC4)CCN2C(=O)COc2ccc(NS(C)(=O)=O)nc2Cl)c(F)c1 (stereo not drawn) [Example 3.2.1, N-(6-chloro-5-(2-(1-(2-fluoro-4-methylphenyl)-3,4,7,8,9,10-hexahydro-1 H-pyrido[4′,3′:4,5]imidazo-[1,2-a]azepin-2(6H)-yl)-2-oxoethoxy)pyridin-2-yl)methanesulfonamide] |
| 62 | COCCN(C)c1ccc(OCC(=O)N2CCc3nc4n(c3C2c2ccc(Cl)cc2F)CCCC4)c(Cl)n1 (stereo not drawn) [Example 1.1.24, 1-(1-(4-chloro-2-fluorophenyl)-3,4,6,7,8,9-hexahydroimidazo[1,2-a:5,4-c′]dipyridin-2(1H)-yl)-2-((2-chloro-6-((2-methoxyethyl)(methyl)amino)pyridin-3-yl)oxy)ethan-1-one] |
| 9 | CN(CC(F)(F)F)c1ccc(OCC(=O)N2CCc3nc4n(c3C2c2ccc(Cl)cc2F)CCCC4)c(Cl)n1 (stereo not drawn) [Example 1.1.23, 1-(1-(4-chloro-2-fluorophenyl)-3,4,6,7,8,9-hexahydroimidazo[1,2-a:5,4-c′]dipyridin-2(1H)-yl)-2-((2-chloro-6-(methyl(2,2,2-trifluoroethyl)amino)pyridin-3-yl)oxy)ethan-1-one] |
| 10 | CS(=O)(=O)Nc1ccc(OCC(=O)N2CCc3nc4n(c3C2c2ccc(C3CC3)cc2F)CCS4)c(Cl)n1 (stereo not drawn) [Example 4.3.2, N-(6-chloro-5-(2-(5-(4-cyclopropyl-2-fluorophenyl)-2,3,7,8-tetrahydrothiazolo[2′,3′:2,3]imidazo[4,5-c]pyridin-6(5H)-yl)-2-oxoethoxy)pyridin-2-yl)methanesulfonamide] |
| 39 | CCc1nc(C)ccc1OCC(=O)N1CCc2nc3n(c2C1c1ccc(Cl)cc1F)CCCC3 (stereo not drawn) [Example 1.1.15, 1-(1-(4-chloro-2-fluorophenyl)-3,4,6,7,8,9-hexahydroimidazo[1,2-a:5,4-c′]dipyridin-2(1H)-yl)-2-((2-ethyl-6-methylpyridin-3-yl)oxy)ethanone] |
| 7 | O=C(COc1ccc(N2CCOCC2)nc1Cl)N1CCc2nc3n(c2C1c1ccc(Cl)cc1F)CCCC3 (stereo not drawn) [Example 1.1.2, 1-(1-(4-chloro-2-fluorophenyl)-3,4,6,7,8,9-hexahydro-imidazo[1,2-a:5,4-c′]dipyridin-2(1H)-yl)-2-((2-chloro-6-morpholinopyridin-3-yl)oxy)ethanone] |
| 16 | CN(c1ccc(OCC(=O)N2CCc3nc4n(c3C2c2ccc(Cl)cc2F)CCS4)c(Cl)n1)S(C)(=O)=O (stereo not drawn) [Example 4.1.4, N-(6-chloro-5-(2-(5-(4-chloro-2-fluorophenyl)-2,3,7,8-tetrahydrothiazolo[2′,3′:2,3]imidazo[4,5-c]pyridin-6(5H)-yl)-2-oxoethoxy)pyridin-2-yl)-N-methylmethanesulfonamide] |
| 19 | CCc1nc(NS(C)(=O)=O)ccc1OCC(=O)N1CCc2nc3n(c2C1c1sccc1F)CCS3 (stereo not drawn) [Example 4.6.3, N-(6-ethyl-5-(2-(5-(3-fluorothiophen-2-yl)-2,3,7,8-tetrahydrothiazolo[2′,3′:2,3]imidazo[4,5-c]pyridin-6(5H)-yl)-2-oxoethoxy)pyridin-2-yl)methanesulfonamide] |

Same assay, conditions: Table 2

| IC50 [nM] | Structure (SMILES) |
| --- | --- |
| 844 | CNC(=O)c1csc(C2c3c(nc4n3CCCC4)CCN2C(=O)COc2ccc(NS(C)(=O)=O)nc2Cl)n1 (stereo not drawn) [Example 1.7.1, 2-(2-(2-((2-Chloro-6-(methylsulfonamido)pyridin-3-yl)oxy)acetyl)-1,2,3,4,6,7,8,9-octahydroimidazo[1,2-a:5,4-c′]dipyridin-1-yl)-N-methylthiazole-4-carboxamide] |
